Assay results: US20230159527A1, “COMPOUNDS AS BCL-2 INHIBITORS” (Fochon Pharmaceuticals, Ltd., priority 2020, published 2023)

Legend:
RS4;11-BCL-2 F104L cells = experiment: Cell proliferation assay, engineered RS4;11 cells stably overexpressing BCL-2 F104L (MTS, 168 h); format: cell-based; settings: Homo sapiens, read-out: RS4, 11 BCL2-F104L
Experimental: MTS testing kit was purchased from Promega (Madison, Wis., USA). The RPMI-1640, Fetal bovine serum and Penicillin-Streptomycin were purchased from BI (Biological Industries, Beit Haemek, Israel). Puromycin was purchased from Beyotime (shanghai, China). Dimethyl sulfoxide (DMSO) was purchased from Sigma (St. Louis, Mo., USA). RS4;1l-BCL-2 G101V and RS4;11-BCL-2 F104L cells were cultured in RPM11640 supplemented with 1 ug/mL puromycin, 100 U/mL Penicillin-Streptomycin and 10% FBS.
To investigate whether a compound is able to inhibit the activity of BCL-2 mutation in cells, a mechanism-based assay using engineered cell lines stably overexpressing BCL-2 mutation ([…] and […]) was developed. In this assay, the inhibition of BCL-2 mutation was reflected by the inhibition of cell proliferation of RS4;11-BCL-2 G101V and RS4;11-BCL-2 F104L cells. Cells were plated into 96-well plates at optimized cell density (RS4;11-BCL-2 G101V: 5000 cells/well; RS4;11-BCL-2 F104L: 5000 cells/well). Plates were incubated at 37° C., with 5% CO2 for 4 h. Compounds were serially diluted to the final-concentrations of 10000, 3333.3, 1111.1, 370.4, 123.5, 41.2, 13.7, 4.6 and 1.4 nM and added to the plates. Plates were incubated at 37° C., with 5% CO2 for 168 h. 20 μl MTS was added into each well and the plates were incubated at 37° C., with 5% CO2 exactly for 2 h. The absorbance was measured by a microplate reader at 490 nm. IC50 values were calculated using GraphPad Prism 5.0 software.

Toledo cells = experiment: Cell proliferation assay, Toledo cells (MTS, 72 h); format: cell-based; settings: Homo sapiens, Toledo cells, MTS, read-out: Toledo IC50
Outline: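 Toledo cells (30000/well, RPMI-1640 with 10% FBS) were preincubated for 4 h. They were then exposed to nine compound concentrations from 10000 to 1.5 nM for 72 h at 37 °C, 5% CO2. MTS was added for 2 h and absorbance read at 490 nm to give IC50.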

Row | IC50 (RS4;11-BCL-2 F104L cells) [nM] | Compound | IC50 (Toledo cells) [nM]
1 | 8 | COc1nc2[nH]cc(F)c2cc1Oc1cc(N2CCC3(CC2)CN([C@H]2CCC[C@H]2c2ccccc2C(C)C)C3)ccc1C(=O)NS(=O)(=O)c1ccc(NC[C@H]2CC[C@](C)(O)CC2)c([N+](=O)[O-])c1 (single isomer, unassigned) [Example D-109, 2-((3-fluoro-6-methoxy-1H-pyrrolo [2,3-b]pyridin-5-yl)oxy)-N-((4-((((1r,4r)-4-hydroxy-4-methylcyclohexyl)methyl)amino)-3-nitrophenyl)sulfonyl)-4-(2-((1S,2S or 1R,2R)-2-(2-isopropylphenyl)cyclopentyl)-2,7-diazaspiro[3.5]nonan-7-yl)benzamide] | 1
2 | 1 | CC(C)c1ccccc1[C@@H]1CCCN1C1CC2(CCN(c3ccc(C(=O)NS(=O)(=O)c4cc5c(c([N+](=O)[O-])c4)N[C@@H]([C@H]4CC[C@](C)(O)CC4)CO5)c(Oc4cc5cc[nH]c5nc4OC[C@H]4COCCO4)c3)CC2)C1 (single isomer, unassigned) [Example D-252, 2-((6-(((R)-1,4-dioxan-2-yl)methoxy)-1H-pyrrolo[2,3-b]pyridin-5-yl)oxy)-N-(((S)-3-((1r,4S)-4-hydroxy-4-methylcyclohexyl)-5-nitro-3,4-dihydro-2H-benzo[b][1,4]oxazin-7-yl)sulfonyl)-4-(2-((R or S)-2-(2-isopropylphenyl)pyrrolidin-1-yl)-7-azaspiro[3.5]nonan-7-yl)benzamide] | 1
3 | 8 | CC(C)c1ccccc1[C@@H]1CCC[C@@H]1N1CC2(CCN(c3ccc(C(=O)NS(=O)(=O)c4cnc(NC[C@H]5CC[C@](C)(O)CC5)c([N+](=O)[O-])c4)c(Oc4cc5cc[nH]c5nc4F)c3)CC2)C1 (single isomer, unassigned) [Example A-158, 2-((6-fluoro-1H-pyrrolo[2,3-b]pyridin-5-yl)oxy)-N-((6-((((1r,4r)-4-hydroxy-4-methylcyclohexyl)methyl)amino)-5-nitropyridin-3-yl)sulfonyl)-4-(2-((1S,2S or 1R,2R)-2-(2-isopropylphenyl)cyclo-pentyl)-2,7-diazaspiro[3.5]nonan-7-yl) benzamide] | 1
4 | 8 | COc1nc2[nH]cc(F)c2cc1Oc1cc(N2CCC3(CC2)CC(N2CCC[C@H]2c2ccccc2C(C)C)C3)ccc1C(=O)NS(=O)(=O)c1cc2c(c([N+](=O)[O-])c1)N[C@@H]([C@H]1CC[C@](C)(O)CC1)CO2 (single isomer, unassigned) [Example D-83, 2-((3-fluoro-6-methoxy-1H-pyrrolo [2,3-b]pyridin-5-yl)oxy)-N-(((S)-3-((1r,4S)-4-hydroxy-4-methylcyclohexyl)-5-nitro-3,4-dihydro-2H-benzo[b][1,4]oxazin-7-yl)sulfonyl)-4-(2-((R or S)-2-(2-isopropylphenyl)pyrrolidin-1-yl)-7-azaspiro[3.5]nonan-7-yl)benzamide] | 1
5 | 15 | CCOc1nc2[nH]cc(F)c2cc1Oc1cc(N2CCC3(CC2)CN([C@H]2CCC[C@H]2c2ccccc2C(C)C)C3)ccc1C(=O)NS(=O)(=O)c1ccc(NC[C@H]2CC[C@](C)(O)CC2)c([N+](=O)[O-])c1 (single isomer, unassigned) [Example D-110, 2-((6-ethoxy-3-fluoro-1H-pyrrolo [2,3-b]pyridin-5-yl)oxy)-N-((4-((((1r,4r)-4-hydroxy-4-methylcyclohexyl)methyl)amino)-3-nitrophenyl)sulfonyl)-4-(2-((1S,2S or 1R,2R)-2-(2-isopropylphenyl)cyclopentyl)-2,7-diazaspiro[3.5]nonan-7-yl)benzamide] | 1
6 | 1 | CC(C)c1ccccc1[C@@H]1CCC[C@@H]1N1CC2(CCN(c3ccc(C(=O)NS(=O)(=O)c4ccc(NC[C@H]5CC[C@](C)(O)CC5)c([N+](=O)[O-])c4)c(Oc4cc5cc[nH]c5nc4F)c3)CC2)C1 (single isomer, unassigned) [Example D-116, 2-((6-fluoro-1H-pyrrolo[2,3-b]pyridin-5-yl)oxy)-N-((4-((1r,4r)-4-hydroxy-4-methylcyclohexyl)methyl)amino)-3-nitrophenyl) sulfonyl)-4-(2-((1S,2S or 1R,2R)-2-(2-isopropylphenyl) cyclopentyl)-2,7-diazaspiro[3.5] nonan-7-yl)benzamide] | 1
7 | 10 | Cc1nc2[nH]cc(F)c2cc1Oc1cc(N2CCC3(CC2)CN([C@H]2CCC[C@H]2c2ccccc2C(C)C)C3)ccc1C(=O)NS(=O)(=O)c1cc2c(c([N+](=O)[O-])c1)N[C@@H]([C@H]1CC[C@](C)(O)CC1)CO2 (single isomer, unassigned) [Example D-240, 2-((3-fluoro-6-methyl-1H-pyrrolo [2,3-b]pyridin-5-yl)oxy)-N-(((S)-3-((1r,4S)-4-hydroxy-4-methylcyclohexyl)-5-nitro-3,4-dihydro-2H-benzo[b][1,4]oxazin-7-yl)sulfonyl)-4-(2-((1S,2S or 1R,2R)-2-(2-isopropylphenyl)cyclopentyl)-2,7-diazaspiro[3.5]nonan-7-yl)benzamide] | 1
8 | 16 | Cc1nc2[nH]cc(F)c2cc1Oc1cc(N2CCC3(CC2)CN([C@H]2CCC[C@H]2c2ccccc2C(C)C)C3)ccc1C(=O)NS(=O)(=O)c1cnc(NC[C@H]2CC[C@](C)(O)CC2)c([N+](=O)[O-])c1 (single isomer, unassigned) [Example A-156, 2-((3-fluoro-6-methyl-1H-pyrrolo[2,3-b]pyridin-5-yl)oxy)-N-((6-((((1r,4r)-4-hydroxy-4-methylcyclohexyl)methyl)amino)-5-nitropyridin-3-yl)sulfonyl)-4-(2-((1S,2S or 1R,2R)-2-(2-isopropylphenyl)cyclo-pentyl)-2,7-diazaspiro[3.5]nonan-7-yl) benzamide] | 1
9 | 8 | Cc1nc2[nH]cc(F)c2cc1Oc1cc(N2CCC3(CC2)CN([C@H]2CCC[C@H]2c2ccccc2C(C)C)C3)ccc1C(=O)NS(=O)(=O)c1ccc(NC[C@H]2CC[C@](C)(O)CC2)c([N+](=O)[O-])c1 (single isomer, unassigned) [Example D-234, 2-((3-fluoro-6-methyl-1H-pyrrolo [2,3-b]pyridin-5-yl)oxy)-N-((4-((((1r,4r)-4-hydroxy-4-methylcyclohexyl)methyl)amino)-3-nitrophenyl)sulfonyl)-4-(2-((1S,2S or 1R,2R)-2-(2-isopropylphenyl)cyclopentyl)-2,7-diazaspiro[3.5]nonan-7-yl)benzamide] | 1
10 | 1 | CC(C)c1ccccc1[C@@H]1CCC[C@@H]1N1CC2(CCN(c3ccc(C(=O)NS(=O)(=O)c4cc5c(c([N+](=O)[O-])c4)N[C@@H]([C@H]4CC[C@](C)(O)CC4)CO5)c(Oc4cc5cc[nH]c5nc4F)c3)CC2)C1 (single isomer, unassigned) [Example D-117, 2-((6-fluoro-1H-pyrrolo[2,3-b]pyridin-5-yl)oxy)-N-(((S)-3-((1r,4S)-4-hydroxy-4-methylcyclohexyl)-5-nitro-3,4-dihydro-2H-benzo[b] [1,4]oxazin-7-yl)sulfonyl)-4-(2-((1S,2S or 1R,2R)-2-(2-isopropylphenyl)cyclopentyl)-2,7-diazaspiro[3.5]nonan-7-yl)benzamide] | 1
11 | 34 | COc1nc2[nH]ccc2cc1Oc1cc(N2CCC3(CC2)CC(N2CCC[C@H]2c2ccccc2C(C)C)C3)ccc1C(=O)NS(=O)(=O)c1cc2c(c([N+](=O)[O-])c1)N[C@@H]([C@H]1CC[C@](C)(O)CC1)CO2 (single isomer, unassigned) [Example D-10, N-(((S)-3-((1r,4S)-4-hydroxy-4-methylcyclohexyl)-5-nitro-3,4-dihydro-2H-benzo[b][1,4]oxazin-7-yl)sulfonyl)-4-(2-((R or S)-2-(2-isopropylphenyl)pyrrolidin-1-yl)-7-azaspiro[3.5]nonan-7-yl)-2-((6-methoxy-1H-pyrrolo [2,3-b]pyridin-5-yl)oxy)benzamide] | 1
12 | 1 | Cc1nc2[nH]cc(F)c2cc1Oc1cc(N2CCC3(CC2)CC(N2CCC[C@H]2c2ccccc2C(C)C)C3)ccc1C(=O)NS(=O)(=O)c1cc2c(c([N+](=O)[O-])c1)N[C@@H]([C@H]1CC[C@](C)(O)CC1)CO2 (single isomer, unassigned) [Example D-244, 2-((3-fluoro-6-methyl-1H-pyrrolo [2,3-b]pyridin-5-yl)oxy)-N-(((S)-3-((1r,4S)-4-hydroxy-4-methylcyclohexyl)-5-nitro-3,4-dihydro-2H-benzo[b][1,4]oxazin-7-yl)sulfonyl)-4-(2-((R or S)-2-(2-isopropylphenyl)pyrrolidin-1-yl)-7-azaspiro[3.5]nonan-7-yl)benzamide] | 1
